Patent US12410179B2, “Modulators of TNF alpha activity and uses thereof” (RayThera, Inc., priority 2023, dated 2025)

How the values were obtained:
[1] = system: human induced pluripotent stem cell-derived cardiomyocytes (hiPSC-CMs); conditions: 10 μM
TNFα [2] = target: T1, TNFα (Homo sapiens, UniProt P01375); assay: HEK-Blue hTNFα reporter assay; assay type: cell-based; parameters: purchased R&D biosystem (R&D Systems) 210-TA-020/CF; conditions: HEK-Blue hTNFα reporter cells; for Emax: read-out: TNFα reporter, Emax
Outline: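 Compounds preincubated 1 h at 37 °C with recombinant hTNFα ([…]), then added to HEK293 NF-κB-SEAP reporter cells, 10000 cells/well, 24 h at 37 °C. SEAP read by QUANTI-Blue at OD620; % inhibition versus stimulated and unstimulated controls, IC50 by 4-parameter fit.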

TNFα [3] = target: T1, TNFα; assay: Human dermal fibroblast cell potency assay (IL-8 HTRF); assay type: cell-based; parameters: purchased R&D biosystem (R&D Systems) 210-TA-020/CF; conditions: human dermal fibroblasts, hTNFα 10 ng/mL, 24 h; for Emax: read-out: HDF_IL-8, Emax; for IC50: read-out: HDF_IL-8, IC50
Method: The potency of compounds was examined in Human dermal fibroblast cells (HDF). […] When used for assay, 40 μL of HDF suspension (2000 cell/well) was seeded into each well of 384-well plates (Corning 3764). After overnight culture, replenish fresh culture medium with 5% fetal bovine serum. A serial dilution of work solution of tested compound was made in DMSO with 1000× of final concentration, and 50 nL of compound DMSO solution was transferred into another set of 384-well plates by Echo, and incubated with 10 μL of recombinant hTNFα (R&D biosystem, Cat #210-TA-020/CF) for 1 h at 37° C. The compound/hTNFα mixture was then transferred to the 384-plate containing HDF, and then incubated at 37° C. with 5% CO2 for 24 h. The final concentration of hTNFα is 10 ng/mL.
After incubation, 16 μL of induced cell supernatant was transferred to a new 384-well Optiplate well to mix with 4 μL of IL-8 antibody cocktail (Revvity #62HIL08PEH). After overnight incubation, the plate was read using EnSight™ Multimode Microplate Reader (Perkin Elmer) for HTRF signal.
The percentage of inhibition was calculated by the following formula: % inhibition=(positive control−Sample)/(positive control−negative control)*100
Positive control: HTRF reading of cells with hTNFα stimulation.
Negative control: HTRF reading of cells without hTNFα stimulation.
Sample: HTRF reading of cells with compound at specific concentration and hTNFα stimulation
The % inhibition was plotted against compound concentration in logarithmic scale and the IC50 was rendered using 4-parameter nonlinear regression (GraphPad Prism).

TNFα [4] = target: T1, TNFα; assay: TNFα human whole blood screening assay (CD11b on granulocytes, zymosan challenge); assay type: cell-based; parameters: a human whole blood assay driven by endogenously expressed TNFα; from tissue; host or cells: human whole blood; conditions: human whole blood IC50 multiplied by unbound fraction from plasma protein binding; read-out: CD11b in hWB, free IC50
Method: The compounds according to the Examples were assessed in a human whole blood assay driven by endogenously expressed TNFα by measuring the expression of CD11b on granulocytes in human whole blood challenged with zymosan. A serial diluted compound was pre-incubated with human whole blood for 1 h at 37° C./5% CO2. Zymosan (Invivogen, Tlrl-zyn) was added (final assay concentration […] in a total volume of 100 μl) with thorough mixing and incubated for 3 h at 37° C./5% CO2. The samples were then incubated with 10 μl antibody cocktail containing APC-conjugated anti-human CD45 antibody (Biolegend, cat #304012) and PE-conjugated anti-human CD11b antibody (Biolegend, cat #101208) for 30 min at 4° C. The blood was fixed/lysed for 10-15 min at 37° C. using FACS/lysing solution (BD sciences, cat #558049) and analyzed with CytoFlex S (Beckman Coulter). The number of single cells (SSC-A, SSC—W) positive for CD45 and expressing CD11b was determined using FlowJo software (BD Biosciences). Inhibition of CD11b activation was calculated against DMSO control. […]
A calculated IC50 for the free compound (free IC50) that considers the extent of fraction unbound in blood was determined by multiplying the IC50 generated from the human whole blood screening assay by the unbound fraction, generated from the plasma protein binding assay.

[5] = Caco-2 assay (permeability); assay type: in vitro ADME; conditions: human, Caco-2, pH 7.4; for Papp A→B at 2 h, 5 μM: apical to basolateral; for efflux ratio at 2 h, 5 μM: read-out: Caco-2, ER (efflux ratio)
Method: Cells were cultivated for 14-18 days in a cell culture incubator at 37° C., 5% CO2, 95% relative humidity. Cell culture medium was replaced every other day, beginning no later than 24 hours after initial plating.
10 mM stock solutions of test compounds were prepared in DMSO. The stock solutions of positive controls were prepared in DMSO at the concentration of 10 mM.
1) Medium was removed from the reservoir and each Transwell insert and replaced with prewarmed fresh culture medium.
2) Transepithelial electrical resistance (TEER) across the monolayer was measured using Millicell Epithelial Volt-Ohm measuring system (Millipore, USA).
3) The Plate was returned to the incubator once the measurement was done.
1) The Caco-2 plate was removed from the incubator and washed twice with pre-warmed HBSS (10 mM HEPES, pH 7.4), and then incubated at 37° C. for 30 minutes.
The final concentration of DMSO in the incubation system was 0.5%.
3) To determine the rate of drug transport in the apical to basolateral direction.
4) To determine the rate of drug transport in the basolateral to apical direction.
5) The plates were incubated at 37° C. for 2 hours.
6) At the end of the incubation, 50 μL samples from donor sides (apical compartment for Ap→Bl flux, and basolateral compartment for Bl→Ap) and receiver sides (basolateral compartment for Ap→Bl flux, and apical compartment for Bl→Ap) were transferred to wells of a new 96-well plate, followed by the addition of 4 volume of cold methanol containing appropriate internal standards (IS). Samples were vortexed for 5 minutes and then centrifuged at 3,220 g for 40 minutes. An aliquot of 100 μL of the supernatant was mixed with an appropriate volume of ultra-pure water before LC-MS/MS analysis.
100 μL of the Lucifer yellow solution was added to each Transwell insert (apical compartment), followed by filling the wells in the receiver plate (basolateral compartment) with 300 μL of HBSS (10 mM HEPES, pH 7.4).

[6] = SEAP readout, read-out: IC50 Range

T1 sequence (P01375 77-233 limits assumed): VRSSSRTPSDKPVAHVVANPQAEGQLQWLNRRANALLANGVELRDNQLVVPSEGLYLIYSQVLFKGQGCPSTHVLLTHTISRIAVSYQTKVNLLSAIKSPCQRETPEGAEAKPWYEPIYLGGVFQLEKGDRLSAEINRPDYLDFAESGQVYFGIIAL

SMILES	Cardiomyocytes FPDc prolong. [1] [%]	EAD (early afterdepolarization) [1]	Emax (TNFα [2]) [%]	IC50 (TNFα [2]; read-out: TNFα reporter, IC50) [nM]	Emax (TNFα [3]) [%]	IC50 (TNFα [3]) [nM]	IC50 (TNFα [4]) [nM]	Papp A→B at 2 h, 5 μM [5] [×10⁻⁶ cm/s]	efflux ratio at 2 h, 5 μM [5]	IC50 (TNFα [2]; [6]) [nM]
CN1C(=O)c2cccc(OC(F)F)c2[C@H]2C[C@@H]1c1nn3ccc(-c4ccc(P(C)(C)=O)nc4)cc3c12 [Example 20]			89	3.8				1.7	22.8	< 25
[2H]C([2H])([2H])N1C(=O)c2cccc(OC(F)F)c2[C@H]2C[C@@H]1c1nn3cc(F)c(-c4cnc([C@]5(N)C[C@@](C)(O)C5)nc4)nc3c12 [Example 57]										< 25
CN1C(=O)c2cccc(OC(F)F)c2[C@H]2C[C@@H]1c1nn3ccc(-c4cnc(N5CCNCC5)nc4)cc3c12 [Example 143]										< 25

Results, then the compound that gave them:

Cardiomyocytes FPDc prolong. [1] [%]	EAD (early afterdepolarization) [1]	Emax (TNFα [2]) [%]	IC50 (TNFα [2]; read-out: TNFα reporter, IC50) [nM]	Emax (TNFα [3]) [%]	IC50 (TNFα [3]) [nM]	IC50 (TNFα [4]) [nM]	Papp A→B at 2 h, 5 μM [5] [×10⁻⁶ cm/s]	efflux ratio at 2 h, 5 μM [5]	IC50 (TNFα [2]; [6]) [nM]	SMILES
> 20	EAD	96	4.8	93	6.7	9.3				CN1C(=O)c2cccc(OC(F)F)c2[C@H]2C[C@@H]1c1nc3ccc(-c4cnc(C5(N)CCC5)nc4)cc3n12 [Comp. Ex #1, reference compound]
		82	7.9				0.6	47.5		CN1C(=O)c2cccc(OC(F)F)c2[C@H]2C[C@@H]1c1nc3ccc(-c4ccc(P(C)(C)=O)nc4)cc3n12 [Comp. Ex #4, reference compound]
		95	4.1	97	2.8	2.1			< 25	CN1C(=O)c2cccc(OC(F)F)c2[C@H]2C[C@@H]1c1nn3ccc(-c4cnc(C5(N)CCC5)nc4)cc3c12 [Example 15]
									< 25	CN1C(=O)c2cccc(OC(F)F)c2[C@H]2C[C@@H]1c1nn3ccc(-c4ccc(P(C)(C)=O)cn4)cc3c12 [Example 122]
